Source: patent US10407445B2, “Hepatitis C virus inhibitors” (ENANTA PHARMACEUTICALS, INC., priority 2013, dated 2019)

How the values were obtained:
Type in all cases: cell-based
[1] = system: HCV GT 1b replicon; assay: HCV replicon assay, stable GT 1b replicon (Renilla luciferase); conditions: Hepatitis C virus, GT1B, 72 h
Method in brief: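 Stable Huh-7.5-based GT1b replicon (Con1-derived) carrying hRluc-Neo, 4000 cells/well seeded onto a sixteen-point half-log compound series in G418-free, phenol red-free medium. After 72 h, Renilla luciferase is read relative to DMSO controls; CC50 in the same cells by CellTiter-Glo.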

[2] = system: HCV GT 2a-J6 replicon; assay: HCV replicon assay, GT2a chimeric replicon expressing NS5A from GT2a strain J6; conditions: Hepatitis C virus, 72 h, read-out: EC50 2a J6
Method in brief: (§1)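 Stable Huh-7.5 lines carried JFH-1 subgenomic replicons with hRluc-Neo reporter, in which NS5A was swapped for GT3a strain S52 or GT2a strain J6 NS5A. Renilla luciferase was read after 72 h relative to DMSO controls.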

[3] = system: HCV GT 3a replicon; assay: HCV replicon assay, GT2a chimeric replicon expressing NS5A from GT3a strain S52; conditions: Hepatitis C virus, 72 h, read-out: EC50 3a
Method in brief: as §1

[4] = system: GT1a replicon encoding NS5A mutation M28T; assay: Transient replication assay, GT1a replicon with NS5A mutation M28T; conditions: Hepatitis C virus, read-out: EC50 1a M28T
[5] = system: GT1a replicon encoding NS5A mutation Y93C; assay: Transient replication assay, GT1a replicon with NS5A mutation Y93C; conditions: Hepatitis C virus, read-out: EC50 1a Y93C

Compound	EC50 [1]	EC50 [2]	EC50 [3]	EC50 [4]	EC50 [5]
COC(=O)N[C@H](C(=O)N1C[C@]2(CCCOC2)C[C@H]1c1nc2ccc3cc(-c4ccc(-c5cnc([C@@H]6C[C@@H]7CCCC[C@@H]7N6C(=O)[C@@H](NC(=O)OC)C(C)C)[nH]5)cc4)ccc3c2[nH]1)C(C)C [Compound 24]	0.006 nM	0.3 nM	0.1 nM	0.02 nM	0.09 nM
COC(=O)N[C@H](C(=O)N1C[C@]2(CCCOC2)C[C@H]1c1nc2ccc3cc(-c4ccc5c(ccc6nc([C@@H]7C[C@@H]8COC[C@@H]8N7C(=O)[C@@H](NC(=O)OC)C(C)C)[nH]c65)c4)ccc3c2[nH]1)C(C)C [Compound 36]	0.051 nM	0.3 nM	1 nM	0.08 nM	0.06 nM
COC(=O)N[C@H](C(=O)N1C[C@]2(CCCOC2)C[C@H]1c1ncc(-c2ccc(-c3ccc4c(c3)OCc3nc([C@@H]5CCCN5C(=O)[C@@H](NC(=O)OC)C(C)C)[nH]c3-4)cc2)[nH]1)C(C)C [Compound 30]	0.045 nM	1 nM	2 nM	0.6 nM	0.5 nM
COC(=O)N[C@H](C(=O)N1C[C@]2(CCCOC2)C[C@H]1c1nc2ccc3cc(-c4ccc(-c5cnc([C@@H]6C[C@H]7C[C@H]7N6C(=O)[C@@H](NC(=O)OC)C(C)C)[nH]5)cc4)ccc3c2[nH]1)C(C)C [Compound 5]	0.011 nM	3 nM	0.5 nM	0.03 nM	0.06 nM
COC(=O)N[C@H](C(=O)N1CCC[C@H]1c1ncc(-c2ccc(-c3ccc4c(ccc5nc([C@@H]6C[C@]7(CCOC7)CN6C(=O)[C@@H](NC(=O)OC)C(C)C)[nH]c54)c3)cc2)[nH]1)C(C)C [Compound 51]	0.016 nM	4 nM	2 nM	0.1 nM	0.07 nM
COC(=O)N[C@H](C(=O)N1C[C@]2(CCCOC2)C[C@H]1c1nc2ccc3cc(-c4ccc(-c5cnc([C@@H]6C[C@@H]7C[C@@H]7N6C(=O)[C@@H](NC(=O)OC)C(C)C)[nH]5)cc4)ccc3c2[nH]1)C(C)C [Compound 22]	0.008 nM	6 nM	0.6 nM	0.1 nM	0.3 nM
COC(=O)N[C@H](C(=O)N1C[C@@]2(CCCCO2)C[C@H]1c1nc(-c2ccc(-c3ccc4c(ccc5nc([C@@H]6CCCN6C(=O)[C@@H](NC(=O)OC)C(C)C)[nH]c54)c3)cc2)c[nH]1)C(C)C [Example 3]	0.04 nM	267 nM	156 nM	6 nM	0.7 nM
COC(=O)N[C@H](C(=O)N1C[C@]2(CCCOC2)C[C@H]1c1ncc(-c2ccc3cc4cc(-c5cnc([C@@H]6C[C@@H]7CCCC[C@@H]7N6C(=O)[C@@H](NC(=O)OC)C(C)C)[nH]5)ccc4cc3c2)[nH]1)C(C)C [Compound 13]	0.021 nM	17 nM	0.9 nM	0.02 nM	0.3 nM
COC(=O)N[C@H](C(=O)N1C[C@]2(CCCOC2)C[C@H]1c1ncc(-c2ccc(-c3ccc4c(ccc5nc([C@@H]6C[C@@H]7CCCC[C@@H]7N6C(=O)[C@@H](NC(=O)OC)C(C)C)[nH]c54)c3)cc2)[nH]1)C(C)C [Compound 29]	0.004 nM	2 nM	0.3 nM	0.02 nM	0.1 nM
COC(=O)N[C@H](C(=O)N1CCC[C@H]1c1ncc(-c2ccc(-c3ccc4c(c3)OCc3nc([C@@H]5C[C@@]6(CCCOC6)CN5C(=O)[C@@H](NC(=O)OC)C(C)C)[nH]c3-4)cc2)[nH]1)C(C)C [Compound 33]	0.038 nM	1 nM	0.2 nM	0.3 nM	0.1 nM
COC(=O)N[C@H](C(=O)N1C[C@]2(CCCOC2)C[C@H]1c1ncc(-c2ccc(-c3ccc4c(ccc5nc([C@@H]6C[C@@H]7C[C@@H]7N6C(=O)[C@@H](NC(=O)OC)C(C)C)[nH]c54)c3)cc2)[nH]1)C(C)C [Compound 20]	0.011 nM	23 nM	1 nM	0.9 nM	1 nM
COC(=O)N[C@H](C(=O)N1C[C@]2(CCCOC2)C[C@H]1c1ncc(-c2ccc3c(c2)COc2cc(-c4cnc([C@@H]5C[C@@H]6CCCC[C@@H]6N5C(=O)[C@@H](NC(=O)OC)C(C)C)[nH]4)ccc2-3)[nH]1)C(C)C [Compound 15]	0.012 nM	1 nM	0.2 nM	0.01 nM	0.2 nM
COC(=O)N[C@H](C(=O)N1[C@H](c2nc3ccc4cc(-c5ccc(-c6cnc([C@@H]7C[C@@]8(CCCOC8)CN7C(=O)[C@@H](NC(=O)OC)C7C[C@@H](C)O[C@H](C)C7)[nH]6)cc5)ccc4c3[nH]2)C[C@@H]2CCCC[C@@H]21)C(C)C (stereo in doubt) [Compound 38]	0.015 nM	0.09 nM	0.07 nM	0.002 nM	0.004 nM
COC(=O)N[C@H](C(=O)N1C[C@@]2(CCOC2)C[C@H]1c1ncc(-c2ccc(-c3ccc4c(ccc5nc([C@@H]6C[C@]7(CCOC7)CN6C(=O)[C@@H](NC(=O)OC)C(C)C)[nH]c54)c3)cc2)[nH]1)C(C)C [Compound 49]	0.009 nM	23 nM	5 nM	1 nM	0.4 nM
COC(=O)N[C@H](C(=O)N1C[C@@]2(CCCOC2)C[C@H]1c1ncc(-c2ccc(-c3ccc4c(ccc5nc([C@@H]6CCCN6C(=O)[C@@H](NC(=O)OC)C(C)C)[nH]c54)c3)cc2)[nH]1)C(C)C [Compound 27]	0.022 nM	50 nM	297 nM	0.03 nM	0.02 nM
COC(=O)N[C@H](C(=O)N1CC2(CC2)C[C@H]1c1nc2ccc3cc(-c4ccc5c(ccc6nc([C@@H]7C[C@@]8(CCCOC8)CN7C(=O)[C@@H](NC(=O)OC)C(C)C)[nH]c65)c4)ccc3c2[nH]1)C(C)C [Compound 7]	0.012 nM	0.3 nM	0.05 nM	0.02 nM	0.02 nM
COC(=O)N[C@H](C(=O)N1C[C@]2(CCCOC2)C[C@H]1c1nc2ccc3cc(-c4ccc5c(ccc6nc([C@@H]7C[C@@H]8CCC[C@@H]8N7C(=O)[C@@H](NC(=O)OC)C(C)C)[nH]c65)c4)ccc3c2[nH]1)C(C)C [Compound 9]	0.006 nM	0.04 nM	0.06 nM	0.03 nM	0.03 nM
COC(=O)N[C@H](C(=O)N1C[C@]2(CCCOC2)C[C@H]1c1nc2ccc3cc(-c4ccc5c(ccc6nc([C@@H]7C[C@@]8(CCCOC8)CN7C(=O)[C@@H](NC(=O)OC)C(C)C)[nH]c65)c4)ccc3c2[nH]1)C(C)C [Compound 31]	0.058 nM	0.3 nM	0.1 nM	0.007 nM	0.007 nM
COC(=O)N[C@H](C(=O)N1CCC[C@H]1c1nc2ccc3cc(-c4ccc5c(ccc6nc([C@@H]7CCCN7C(=O)[C@@H](NC(=O)OC)C(C)C)[nH]c65)c4)ccc3c2[nH]1)C(C)C [Example 101]	0.021 nM	0.1 nM	0.05 nM	1 nM	0.5 nM
